Test results taken from patent publication US10596259B2, “Tumor radiosensitization with monomethyl auristatin E (MMAE) and derivatives thereof” (The Regents of the University of California, priority 2015, dated 2020).
Read-outs that look alike come from different tables or passages of the source.

Legend:
Assay in all cases: Alamar Blue cell viability assay
Format in all cases: cell-based, Human
SCC-35 cells = details: 72 hours
Protocol: (§1) Alamar Blue (resazurin) was added to the cells and allowed to incubate for 2 hrs at 37° C. Plates were analyzed using a plate reader with fluorescence measured at 560 nm.

SCC-61 cells = details: 72 hours
Protocol: as §1

CAL-27 cells = details: 72 hours
Protocol: as §1

SQ-9G cells = details: 72 hours
Protocol: as §1

HCT-116 cells = details: Homo sapiens, HCT-116, 72 h, read-out: IC50
Protocol: (§2) Alamar Blue (also known as resazurin) was added to the cells and allowed to incubate for 2 hrs at 37° C. Plates were analyzed using a plate reader with fluorescence measured at 560 nm. For irradiated cells, cells were treated with MMAE overnight followed by 6 Gy.
as §1
(§3) Cells were plated in 96-well plates and exposed to MMAE or paclitaxel for 72 hours and analyzed at 560 nm. For irradiated cells, cells were treated with MMAE overnight followed by 6 Gy.

779E cells = details: Homo sapiens, 72 h
Protocol: as §2, with “Cells were plated in 96 well plates at varying cell densities and exposed to range of concentrations of MMAE or paclitaxel for 72 hrs. Alamar” for “Alamar”
as §3

PANC-1 cells = details: Homo sapiens, PANC-1, 72 h, read-out: IC50
Protocol: as §2, with “Cells were plated in 96 well plates at varying cell densities and exposed to range of concentrations of MMAE or paclitaxel for 72 hrs. Alamar” for “Alamar”
as §3

Structure (SMILES)	IC50 (SCC-35 cells) [µM]	IC50 (SCC-61 cells) [µM]	IC50 (CAL-27 cells) [µM]	IC50 (SQ-9G cells) [µM]	IC50 (HCT-116 cells; 72 hours exposure (Example 3)) [nM]	IC50 (HCT-116 cells; 72 hours exposure) [nM]	IC50 (779E cells; 72 hours exposure) [nM]	IC50 (779E cells; 72 hours exposure (Example 3)) [nM]	IC50 (PANC-1 cells; 72 hours exposure (Example 3)) [nM]	IC50 (PANC-1 cells; 72 hours exposure) [nM]
N.N.[Cl][Pt][Cl] [cisplatin]	30	10	5	13	–	–	–	–	–	–
CC(=O)O[C@H]1C(=O)[C@@]2(C)[C@H]([C@H](OC(=O)c3ccccc3)[C@]3(O)C[C@H](OC(=O)[C@H](O)[C@@H](NC(=O)c4ccccc4)c4ccccc4)C(C)=C1C3(C)C)[C@]1(OC(C)=O)CO[C@@H]1C[C@@H]2O [paclitaxel]	–	–	–	–	10	10	52	52	15.1	15.1
